In patent publication EP4660182A1, “NAV1.7- AND/OR NAV1.8-INHIBITING ARYL PYRIDINE COMPOUNDS, PROCESSES FOR THE PREPARATION THEREOF, COMPOSITIONS, USES, METHODS FOR TREATMENT USING SAME, AND KITS” (Eurofarma Laboratórios S.A., priority 2023, dated 2024) one finds IC50 data, which are given here for eleven compounds.

Molecules are shown by their SMILES.

For experiment [1], the target named is T1, human sodium channels Nav 1.7 (Homo sapiens, UniProt Q15858).
T1 construct: expressed in transfected cells
As to the kind of experiment: Automated whole-cell voltage-clamp (ScreenPatch 384P) sodium current block, Nav 1.7. Type of experiment: cell-based. Particulars: CHO cells stably expressing human Nav 1.7; inactivation step -40 mV 8 s, test step 0 mV (TP1A); eight concentrations; exposure at least five minutes; room temperature; read-out: Nav1.7 IC50. Summed up: (§1)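 Stable CHO lines, whole-cell automated patch clamp at room temperature, ≥5 min exposure, eight concentrations. From -100 mV hold, 8 s at -40 mV, 20 ms at -100 mV, then test pulse to 10 mV (Nav 1.8) or 0 mV (Nav 1.7) at 0.05 Hz; peak-current % block fitted for IC50, averaged over repeats.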

Experiment [2] addresses T2, human sodium channels Nav 1.8 (Homo sapiens, UniProt Q9Y5Y9).
T2 construct: expressed in transfected cells
In words: Automated whole-cell voltage-clamp (ScreenPatch 384P) sodium current block, Nav 1.8. Type of experiment: cell-based. Particulars: CHO cells stably expressing human Nav 1.8; inactivation step -40 mV 8 s, test step 10 mV (TP1A); eight concentrations; exposure at least five minutes; room temperature; read-out: Nav1.8 IC50. In short, it runs like this:
as §1

T1 sequence (Q15858 whole entry): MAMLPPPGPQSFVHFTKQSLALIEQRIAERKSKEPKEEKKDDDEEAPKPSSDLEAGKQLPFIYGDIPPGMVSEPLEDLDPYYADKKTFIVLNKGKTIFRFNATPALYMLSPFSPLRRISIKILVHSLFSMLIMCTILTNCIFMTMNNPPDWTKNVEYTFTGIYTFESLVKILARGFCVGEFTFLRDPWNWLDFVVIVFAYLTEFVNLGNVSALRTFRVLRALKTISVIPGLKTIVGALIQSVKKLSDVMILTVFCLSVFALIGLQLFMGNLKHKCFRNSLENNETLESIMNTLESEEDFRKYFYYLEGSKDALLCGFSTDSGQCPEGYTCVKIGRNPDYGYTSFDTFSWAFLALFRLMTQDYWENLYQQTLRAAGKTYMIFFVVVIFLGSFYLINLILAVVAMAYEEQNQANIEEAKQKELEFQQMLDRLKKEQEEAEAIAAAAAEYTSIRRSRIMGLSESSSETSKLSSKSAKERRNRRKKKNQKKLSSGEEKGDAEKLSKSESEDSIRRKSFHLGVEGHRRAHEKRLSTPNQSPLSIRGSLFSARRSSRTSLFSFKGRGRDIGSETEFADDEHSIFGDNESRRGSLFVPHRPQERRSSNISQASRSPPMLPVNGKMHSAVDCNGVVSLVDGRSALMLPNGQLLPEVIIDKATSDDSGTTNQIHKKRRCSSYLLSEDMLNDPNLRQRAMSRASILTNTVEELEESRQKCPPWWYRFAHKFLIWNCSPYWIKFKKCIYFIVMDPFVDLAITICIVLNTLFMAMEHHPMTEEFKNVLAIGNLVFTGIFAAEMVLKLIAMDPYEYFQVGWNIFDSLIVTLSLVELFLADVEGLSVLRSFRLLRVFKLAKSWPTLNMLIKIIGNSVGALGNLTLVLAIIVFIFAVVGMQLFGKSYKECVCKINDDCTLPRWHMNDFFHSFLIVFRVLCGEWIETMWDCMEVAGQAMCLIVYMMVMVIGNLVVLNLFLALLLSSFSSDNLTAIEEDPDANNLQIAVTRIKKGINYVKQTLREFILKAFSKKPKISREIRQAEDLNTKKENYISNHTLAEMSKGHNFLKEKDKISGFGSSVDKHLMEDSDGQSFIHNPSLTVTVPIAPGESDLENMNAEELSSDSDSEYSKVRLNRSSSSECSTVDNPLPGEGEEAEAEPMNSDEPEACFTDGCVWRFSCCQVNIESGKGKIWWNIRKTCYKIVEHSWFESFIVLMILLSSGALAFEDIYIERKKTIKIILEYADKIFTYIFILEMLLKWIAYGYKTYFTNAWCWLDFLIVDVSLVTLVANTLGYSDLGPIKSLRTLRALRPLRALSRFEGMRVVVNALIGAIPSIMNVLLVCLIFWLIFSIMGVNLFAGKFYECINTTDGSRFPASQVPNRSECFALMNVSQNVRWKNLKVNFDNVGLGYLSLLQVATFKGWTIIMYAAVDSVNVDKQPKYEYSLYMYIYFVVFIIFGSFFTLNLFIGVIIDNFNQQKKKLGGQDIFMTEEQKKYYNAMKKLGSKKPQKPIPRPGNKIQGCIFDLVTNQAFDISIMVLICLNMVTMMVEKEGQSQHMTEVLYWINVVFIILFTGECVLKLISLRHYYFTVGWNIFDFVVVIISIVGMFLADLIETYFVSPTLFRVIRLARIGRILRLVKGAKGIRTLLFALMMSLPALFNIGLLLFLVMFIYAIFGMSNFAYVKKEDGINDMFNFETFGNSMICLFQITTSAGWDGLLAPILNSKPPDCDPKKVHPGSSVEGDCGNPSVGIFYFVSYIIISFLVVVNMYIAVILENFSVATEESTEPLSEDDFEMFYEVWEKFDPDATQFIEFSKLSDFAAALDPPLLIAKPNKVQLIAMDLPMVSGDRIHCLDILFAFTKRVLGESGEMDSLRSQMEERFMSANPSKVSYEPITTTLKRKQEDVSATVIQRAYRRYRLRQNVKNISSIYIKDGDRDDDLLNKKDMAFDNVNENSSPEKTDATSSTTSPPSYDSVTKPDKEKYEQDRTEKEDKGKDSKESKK
T2 sequence (Q9Y5Y9 whole entry): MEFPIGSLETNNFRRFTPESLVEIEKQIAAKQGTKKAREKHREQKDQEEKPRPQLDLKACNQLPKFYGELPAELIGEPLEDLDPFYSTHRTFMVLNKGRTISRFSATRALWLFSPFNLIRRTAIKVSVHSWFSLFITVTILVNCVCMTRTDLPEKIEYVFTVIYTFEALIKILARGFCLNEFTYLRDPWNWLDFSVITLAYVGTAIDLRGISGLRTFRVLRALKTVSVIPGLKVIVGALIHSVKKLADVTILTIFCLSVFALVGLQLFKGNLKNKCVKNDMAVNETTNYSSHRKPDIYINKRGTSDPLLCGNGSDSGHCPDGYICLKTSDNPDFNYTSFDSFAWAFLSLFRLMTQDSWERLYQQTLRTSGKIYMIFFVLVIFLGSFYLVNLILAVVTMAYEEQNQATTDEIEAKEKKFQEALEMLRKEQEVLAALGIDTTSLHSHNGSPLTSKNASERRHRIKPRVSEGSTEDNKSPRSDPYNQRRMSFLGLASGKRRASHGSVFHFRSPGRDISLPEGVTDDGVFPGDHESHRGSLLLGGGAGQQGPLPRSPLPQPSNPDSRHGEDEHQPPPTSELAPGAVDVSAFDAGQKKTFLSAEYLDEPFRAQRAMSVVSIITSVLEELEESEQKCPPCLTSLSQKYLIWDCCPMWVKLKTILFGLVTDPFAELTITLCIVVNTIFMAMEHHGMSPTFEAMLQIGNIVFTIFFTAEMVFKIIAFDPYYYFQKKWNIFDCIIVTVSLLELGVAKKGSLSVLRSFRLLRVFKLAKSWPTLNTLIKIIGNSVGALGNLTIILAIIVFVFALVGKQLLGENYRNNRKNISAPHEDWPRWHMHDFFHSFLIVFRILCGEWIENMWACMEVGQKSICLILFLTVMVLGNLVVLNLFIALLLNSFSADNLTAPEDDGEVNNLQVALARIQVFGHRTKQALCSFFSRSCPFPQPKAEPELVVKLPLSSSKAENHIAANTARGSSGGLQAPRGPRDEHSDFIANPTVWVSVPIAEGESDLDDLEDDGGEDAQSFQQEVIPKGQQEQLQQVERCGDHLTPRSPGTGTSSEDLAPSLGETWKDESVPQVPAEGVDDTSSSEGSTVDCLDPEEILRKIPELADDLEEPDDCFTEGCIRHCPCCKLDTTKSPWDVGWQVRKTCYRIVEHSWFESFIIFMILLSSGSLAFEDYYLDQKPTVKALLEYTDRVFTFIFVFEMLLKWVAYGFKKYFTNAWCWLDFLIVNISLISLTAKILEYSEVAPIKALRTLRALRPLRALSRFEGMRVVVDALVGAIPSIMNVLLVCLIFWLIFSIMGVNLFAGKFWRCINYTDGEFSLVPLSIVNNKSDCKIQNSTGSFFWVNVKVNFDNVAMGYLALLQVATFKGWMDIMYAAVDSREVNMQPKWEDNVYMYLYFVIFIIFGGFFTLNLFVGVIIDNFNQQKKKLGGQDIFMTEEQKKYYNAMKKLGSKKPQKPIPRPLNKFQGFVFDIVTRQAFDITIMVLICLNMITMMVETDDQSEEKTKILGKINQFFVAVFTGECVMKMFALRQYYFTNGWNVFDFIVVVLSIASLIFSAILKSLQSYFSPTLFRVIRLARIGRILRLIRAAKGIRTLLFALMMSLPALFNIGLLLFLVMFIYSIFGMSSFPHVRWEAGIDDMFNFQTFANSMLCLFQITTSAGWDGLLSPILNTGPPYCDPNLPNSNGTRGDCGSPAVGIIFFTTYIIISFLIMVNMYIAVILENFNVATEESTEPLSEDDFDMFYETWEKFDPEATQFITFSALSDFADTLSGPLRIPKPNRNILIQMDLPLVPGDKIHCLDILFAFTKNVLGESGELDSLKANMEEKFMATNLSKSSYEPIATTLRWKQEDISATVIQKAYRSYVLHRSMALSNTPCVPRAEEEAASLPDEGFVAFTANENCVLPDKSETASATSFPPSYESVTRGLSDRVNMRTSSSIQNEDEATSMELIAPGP

The term IC50 denotes the point on the concentration scale where inhibition reaches its midpoint. As to `CN(C)c1ccc(F)c(/C=N/NC(=O)c2cncc(-c3ccc(OC(F)(F)F)nc3)n2)c1` [Compound 93, (E)-N'-(5-(dimethylamino)-2-fluorobenzylidene)-6-(6-(trifluoromethoxy)pyridine-3-yl) pyrazine-2-carbohydrazide], the figures for the concentration for half-maximal inhibition (IC50) in experiment [1] and in experiment [2] were more than 1000 nM and less than 500 nM, respectively.
In the same order, the values of `O=C(N/N=C/c1cc(OC2CC2)ccc1F)c1cncc(-c2ccc(OC(F)(F)F)nc2)n1` [Compound 94, (E)-N'-(5-cyclopropoxy-2-fluorobenzylidene)-6-(6-(trifluoromethoxy)pyridine-3-yl)pyrazine-2-carbohydrazide] are less than 500 nM and less than 500 nM.
In the same order, the values of `COc1cnc(F)c(/C=N/NC(=O)c2cncc(-c3ccc(OC(F)(F)F)nc3)n2)c1` [Compound 95, (E)-N'-((2-fluoro-5-methoxypyridine-3-yl)methylene)-6-(6-(trifluoromethoxy)pyridine-3-yl)pyrazine-2-carbohydrazide] are more than 1000 nM and less than 500 nM.
With `COc1cc(/C=N/NC(=O)c2cncc(-c3ccc(OC(F)(F)F)nc3)n2)c(F)cn1` [Compound 96, (E)-N'-((5-fluoro-2-methoxypyridine-4-yl)methylene)-6-(6-(trifluoromethoxy)pyridine-3-yl)pyrazine-2-carbohydrazide], the half-maximal inhibitory concentration (IC50) in experiment [1] is more than 1000 nM; in experiment [2] it was less than 500 nM.
For `COc1ccc(F)c(/C=N/NC(=O)c2cncc(-c3ccc(OC(F)(F)F)nc3)n2)n1` [Compound 97, (E)-N'-((3-fluoro-6-methoxypyridine-2-yl)methylene)-6-(6-(trifluoromethoxy)pyridine-3-yl)pyrazine-2-carbohydrazide], the IC50 in experiment [1] and in experiment [2] was more than 1000 nM throughout.
`COc1ccc(F)c(/C=N/NC(=O)c2cnc(O)c(-c3ccc(OC(F)(F)F)nc3)n2)c1` [Compound 98, (E)-N'-(2-fluoro-5-methoxybenzylidene)-5-hydroxy-6-(6-(trifluoromethoxy)pyridine-3-yl)pyrazine-2-carbohydrazide]: the 50% inhibitory concentration (IC50) in experiment [1] and in experiment [2] was more than 1000 nM each time.
For `COc1ccc(F)c(/C=N/NC(=O)c2nc(-c3ccc(OC(F)(F)F)nc3)cnc2O)c1` [Compound 99, (E)-N'-(2-fluoro-5-methoxybenzylidene)-3-hydroxy-6-(6-(trifluoromethoxy)pyridine-3-yl)pyrazine-2-carbohydrazide], the IC50 in experiment [1] and in experiment [2] was more than 1000 nM in each case.
As for `COc1ccc(F)c(/C=N/NC(=O)c2cncc(-c3ccc(OC(F)F)nc3)n2)c1` [Compound 100, (E)-6-(6-(difluoromethoxy)pyridine-3-yl)-N'-(2-fluoro-5-methoxybenzylidene) pyrazine-2-carbohydrazide], the half-inhibitory concentration (IC50) in experiment [1] is 500 to 1000 nM; in experiment [2], less than 500 nM.
The like results for `COc1cnc(F)c(/C=N/NC(=O)c2cncc(-c3ccc(OC(F)F)nc3)n2)c1` [Compound 101, (E)-6-(6-(difluoromethoxy)pyridine-3-yl)-N'-((2-fluoro-5-methoxypyridine-3-yl)methylene)pyrazine-2-carbohydrazide] were, in that order, more than 1000 nM and less than 500 nM.
In the same order, the values of `COc1ccc(C)c(/C=N/NC(=O)c2cncc(-c3ccc(OC(F)F)nc3)n2)c1` [Compound 102, (E)-6-(6-(difluoromethoxy)pyridine-3-yl)-N'-(5-methoxy-2-methylbenzylidene) pyrazine-2-carbohydrazide] are more than 1000 nM and less than 500 nM.
As for `COc1cnc(C)c(/C=N/NC(=O)c2cncc(-c3ccc(OC(F)F)nc3)n2)c1` [Compound 103, (E)-6-(6-(difluoromethoxy)pyridine-3-yl)-N'-((5-methoxy-2-methylpyridine-3-yl)methylene)pyrazine-2-carbohydrazide], the IC50 in experiment [1] is more than 1000 nM; in experiment [2] it was less than 500 nM.
